Entries after “also recorded” stand apart in the source; their conditions may differ.
Columns and labels:
[1] = test system: CCI-induced TBI mice; assay: Lesion volume in CCI-induced mice (Cavalieri stereology); assay type: in vivo, mouse; conditions: for total lesion volume / size of lesion cavity: 21 days post-injury
Description: FIG. 5C is a plot showing lesion size in the experimental conditions. Lesion size was quantitatively measured in control mice, untreated CCI injured mice, NaB treated CCI-mice and NaFO-treated CCI-mice at 21 days post-injury. Statistical analyses were performed with Student's t-test in the injured side of the brain [^ap<0.001 (5.623×10^−7) vs control; ^bp<0.001 (=0.001) vs CCI injury].
FIGS. 10A-10C. Decrease in lesion volume in TBI mice by GTB treatment. […] FIG. 10A. […] FIG. 10C. Lesion volume was quantified in all groups of mice. Statistical analyses were performed with two way ANOVA and expressed as mean±SD to compare the lesion volume between unlesioned and lesioned side of the brain.
The estimation of lesion volume was performed based on the Cavalieri method of unbiased stereology using the StereoInvestigator software (MicroBright Biosciences, USA). Both the ipsilateral and contralateral hemisphere of brain volumes were determined using the Cavalieri estimator with a 1 mm grid spacing 1 mm. Every fourth section was analyzed beginning from a random start point. Lesion volume was estimated by subtracting the volume of the ipsilateral hemisphere from that of the contralateral hemi-sphere. Then the volume of lesion cavity estimated in brain section of untreated mice was compared with lesion volume of brain sections of drug treated mice.

[2] = test system: CCI-injured mice; assay: Rotarod test in CCI-injured mice; assay type: in vivo, mouse; conditions: 50 mg/kg/day oral
Description: The forehindlimb motor coordination and balance in animals was observed using the rotarod test as described in earlier studies. Briefly, each mouse was placed on the confined section of the rod and trial was initiated with a smooth increase in speed from 4 rpm to 40 rpm for 5 mins. […] The latency to fall was measured in seconds and used for the analysis. Following the CCI injury, each mouse performed the task three trials during the testing sessions and the average score on these three trials was used as the individual rotarod score. Each trial on the rod was terminated when the mice fell off the rod or held on to the rod by hanging and completed improper revolutions.

[3] = test system: CCI-injured mice; assay: Beam runway / beam walking in CCI-injured mice; assay type: in vivo, mouse; conditions: for gait movement on beam runway (steps, time taken, foot slips): 7 day post-injury
Description: The beam runway was made of smooth wooden material and measured 65 cm length×0.7 cm breadth×4 cm height. A black box with an opening was fixed at one end and an aversive stimulus (bright lamp) at the other end of beam. This test was used to evaluate the complex coordination and balance of mice while traversing the beam and we performed the procedure as described in earlier studies. The mouse was placed on the beam near the light source and the light was turned ‘on’. This makes the animal move into the box to avoid the aversive stimulus, which was then turned off. Six repetitions were performed with a 2 mins resting period inside the box. The parameters measured were the time taken (sec) to reach the box and the number of steps with contralateral limb drag/slips. An error was considered whenever the paw slipping on the beam and the number of slips were counted. The beam walk analysis was performed by an observer blinded to the treatment at 7th and 21st postoperative day.

[4] = test system: CCI-injured mice; assay: Tail suspension test (depression-like behavior) in CCI-injured mice; assay type: in vivo, mouse; conditions: 50 mg/kg/day oral
Description: Mice were subjected to the tail suspension test using a methodology as described in earlier studies. The mice were gently hung upside down by the tail using the non-toxic adhesive tape 50 cm above the floor for 6 mins. Immobility time was defined as the period of time during which the mice only hung passively, without any active movements. An increased immobility time is defined as a depression-like behavior.

[5] = test system: CCI-induced TBI mice; assay: Glial activation and iNOS in brain of CCI-induced TBI mice (immunofluorescence, Western blot); conditions: for activation of astrocytes / astroglial inflammation in vivo / microglial activation in vivo / iNOS / iNOS-positive cells / GFAP-positive astrocytes / Iba1-positive microglia: cortex and hippocampus; for activation of astrocytes / astroglial inflammation in vivo / microglial activation in vivo: 7 days of treatment, 50 mg/kg/day oral; for iNOS / iNOS-positive cells / level of iNOS protein / expression of iNOS (Western blot) / protein level of GFAP (Western blot) / protein level of Iba1 (Western blot): day 7, 50 mg/kg/day oral; for GFAP-positive astrocytes / Iba1-positive microglia: day 7 post-injury, 50 mg/kg/day oral from 24 h after CCI; for level of iNOS protein / expression of iNOS (Western blot) / protein level of GFAP (Western blot) / protein level of Iba1 (Western blot): hippocampus
[6] = test system: CCI-injured mice; assay: Grid runway in CCI-injured mice; assay type: in vivo, mouse; conditions: for gait movement on grid runway (steps, time taken, foot misplacement): 7 day post-injury
Description: The grid runway (65 cm length×8 cm breadth×1 cm intervals) made of parallel grid bars with interbar intervals of 1 cm apart and grid were kept above the surface on a table during the testing session. The soft padding was positioned under the grid run-way in the event for protection to avoid serious injury, if the animal falls from the grid. Each mouse was allowed to walk freely on grid and the time taken and number of steps to cross the runway was noted. Each successful foot placement on grid was recorded as a step. However, an error was considered whenever the paw slips through the grid or the paw misses a bar and extends downwards through the plane of bars. The locomotor behavior of animal on grid was evaluated by an observer blinded to the treatment on 7th and 21st day after CCI injury.

[7] = test system: TBI mice; assay: T-maze in TBI mice; assay type: in vivo, mouse; conditions: 21 days post-injury, 50 mg/kg/day oral
Description: Mice were initially habituated in the T-maze for 2 days under food-deprived conditions. Food reward was provided for at least 5 times over a 10 mins period of training. T-maze was cleaned with mild detergent solution between each testing session, so as to minimize the animal's ability to use any olfactory clues. The food-reward side was always associated with a visual cue. Each time the animal consumed food-reward and it was considered as a positive turn.

[8] = test system: TBI mice; assay: Barnes maze test in TBI mice; assay type: in vivo, mouse; conditions: 50 mg/kg/day oral; for Barnes maze latency (time taken to find the target hole) / Barnes maze number of errors: 21 days post-injury
Description: The Barnes maze test was performed as described in our earlier studies. Briefly, the mice were initially trained for 2 consecutive days followed by examination on day 3. After each training session, maze and escape tunnel were thoroughly cleaned with a mild detergent to avoid instinctive odor avoidance due to mouse's odor from the familiar object. On day 3, a video camera (Basler Gen I Cam—Basler acA 1300-60) connected to a Noldus computer system was placed above the maze and was illuminated with high voltage light that generated enough light and heat to motivate animals to enter into the escape tunnel. The performance was monitored by the video tracking system (Noldus System). Cognitive behavior parameters were examined by measuring latency (duration before all four paws were on the floor of the escape box) and errors (incorrect response before all four paws were on the floor of the escape box).

[9] = test system: mice with TBI induced by CCI; assay: Open field behavior in TBI mice; assay type: in vivo, mouse; conditions: 50 mg/kg/day oral; for overall movements / all open-field parameters (heat map, distance, velocity, center frequency, rearing): 21 day post-injury
Description: The performance of animals in open field test was analyzed as described in earlier studies. Briefly, each animal was allowed to move freely to explore an open field arena designed with a square shaped wooden floor measuring 40×40 cm, with walls 30 cm high for 5 min. A […] (Basler Gen I Cam—Basler acA 1300-60) connected to a Noldus computer system was fixed in top facing-down on the open field arena. Each mouse was placed individually on center of the arena and the performance was monitored by the live video tracking system. The central area was arbitrarily defined as a square of 20×20 cm ([…]).

[10] = 7 day post-injury, 50 mg/kg/day
[11] = 50 mg/kg/day oral, 50 mg/kg/day
[12] = 21 days post-injury, 50 mg/kg/day oral
[13] = 21st day of CCI injury, 50 mg/kg/day oral gavage

Structure (SMILES)	immobility time in tail suspension test ([4]; 21 days post-injury)	activation of astrocytes / astroglial inflammation in vivo [5]	microglial activation in vivo [5]	iNOS / iNOS-positive cells [5]	GFAP-positive astrocytes [5]	Iba1-positive microglia [5]	level of iNOS protein / expression of iNOS (Western blot) [5]	protein level of GFAP (Western blot) [5]	protein level of Iba1 (Western blot) [5]	T-maze number of negative turns [7]	T-maze number of positive turns [7]	Barnes maze latency (time taken to find the target hole) [8]	Barnes maze number of errors [8]	overall movements / all open-field parameters (heat map, distance, velocity, center frequency, rearing) [9]	other results
O=C([O-])c1ccccc1.[Na+] [NaB, Sodium benzoate]	significant improvement	attenuates	inhibits	inhibition of iNOS	decrease	decrease	decreases	Decrease and/or normalization	Decrease and/or normalization	lower number of negative turns	higher number of positive turns	less latency	fewer errors	significant differences in overall movements were not observed	total lesion volume / size of lesion cavity ([1]; cresyl violet sections, 50 mg/kg/day oral): significantly reduced; structural-tissue integrity of damaged hippocampus ([1]; oral treatment started 24 h after CCI): restored; latency to fall on rotarod [2, 10]: prolonged latencies; also recorded: significantly improved; latency to fall on rotarod ([2]; 21 day post-injury, 50 mg/kg/day): prolonged latencies; also recorded: significantly improved; gait movement on beam runway (steps, time taken, foot slips) [3, 11]: significant improvement; also recorded: significant upgrade; also recorded: improved; beam walking performance [3, 12]: did not display significant protection; immobility time in tail suspension test ([4]; 7 days post-injury, 50 mg/kg/day): significantly less immobility time; also recorded: significant improvement; gait movement on grid runway (steps, time taken, foot misplacement) [6, 11]: significant improvement; also recorded: significant upgrade; also recorded: improvements; grid runway performance [6, 12]: did not display significant protection; hippocampus-dependent behaviors / cognitive performance ([8]; NOR, Barnes maze and T maze, 21 days): enhanced cognitive performance; general locomotor activity / open-field behavior [9, 10]: significant improvement; also recorded: improves; center frequency ([9]; open field, 7 day post-injury): Functional upgrading was clearly visible; distance traveled ([9]; open field, 7 day post-injury): Functional upgrading was clearly visible; rearing behavior ([9]; open field, 7 day post-injury): Functional upgrading was clearly visible; velocity ([9]; open field, 7 day post-injury): Functional upgrading was clearly visible
O=C(OCC(COC(=O)c1ccccc1)OC(=O)c1ccccc1)c1ccccc1 [GTB, Glyceryl Tribenzoate]	significantly less immobility time	inhibits	decreases	decreased	decrease	reduced	decreased	decrease	reduced	lower number of negative turns	higher number of positive turns	less time	less errors	no significant change	total lesion volume / size of lesion cavity ([1]; H&E-stained sections, 50 mg/kg/day oral gavage): decrease; latency to fall on rotarod ([2]; 7 day post-injury): increase in latency; beam walking, number of steps [3, 13]: no significant change; beam walking, time taken [3, 13]: no significant change; gait movement on beam runway (steps, time taken, foot slips) ([3]; 50 mg/kg/day oral): improved; immobility time in tail suspension test ([4]; 7 days post-injury): significantly less immobility time; grid runway, number of steps [6, 13]: no significant change; gait movement on grid runway (steps, time taken, foot misplacement) ([6]; 50 mg/kg/day oral): improved; general locomotor activity / open-field behavior ([9]; 7 day post-injury): significant increase
